Laboratory results: patent US20160038519A1, “ADMINISTRATION OF KARENITECIN FOR THE TREATMENT OF ADVANCED OVARIAN CANCER, INCLUDING CHEMOTHERAPY-RESISTANT AND/OR THE MUCINOUS ADENOCARCINOMA SUB-TYPES” (BioNumerik Pharmaceuticals, Inc., priority 2014, published 2016)
Where two headings read alike, the source gives them in different places.

Key:
[1] = human, in vivo; cited from earlier work
MDR-expressing sublines = details: cited from earlier work; for Resistance of MDR-expressing sublines relative to parental wild-type cells: comparison studies
[2] = Limit of solubility in cell culture medium; format: physicochemical
Protocol: (§1) The 1050 values exceeded the solubility in medium for each compound—the limit of solubility in cell culture medium for the compounds were as follows: 2 micromolar for BNP1350 and SN38, and 20 micromolar for Topotecan. Cells were treated for periods of 2.5 hours or 6 hours and, in each case, the […] values were not reached. Longer treatments were not performed.

COV644 Cell Line = test: SRB cytotoxicity assay, COV644; format: cell-based, human; details: 2, 5, and 6 hour drug exposures
Protocol: (§2) In vitro studies were conducted in human mucinous ovarian cancer cell lines including JHOM2B, OMC3, and COV644. In one series of experiments, the dose response curves for BNP1350 (also known as Karenitecin), SN-38 (Irinotecan), and Topotecan were obtained and IC50 values were determined. In a second series of experiments, the effect of BNP7787 (2,2′-dithio-bis-ethane sulfonate; Tavocept) on BNP1350-induced cytotoxicity at selected BNP1350 concentrations was examined.
(§3) The JHOM2B and OMC3 cell lines were purchased from Riken Cell Bank (Japan). The COV644 cell line was purchased from SigmaAldrich. Cells were maintained as monolayered cultures in T-75 flasks and then seeded to microtiter plate wells for experiments. Population doubling-times for these three cell lines were long (i.e., exceeding 40 hours, and for some of the cell lines approaching 96 hours); therefore, the Applicants conducted initial pilot experiments and determined optimal seeding density to obtain A570 values in untreated controls that would fall within the linear range of the SRB assay after seven (7) total days of cell growth. JHOM2B cells were cultured in DMEM:F12 (1:1)+0.1 mM non-essential amino acids (NEAA)+10% FBS and were seeded at 6,000 cells per well. OMC3 cells were cultured in HamF12+10% FBS and were seeded at 8,000 cells per well. COV644 cells were cultured in DMEM+2 mM glutamine+10% FBS and were seeded at 6,000 cells per well.
(§4) The cells were manipulated in a Microzone laminar flow hood traditionally used for maintaining aseptic environments around automated instrumentation such as microplate robots, and the like. Cells were grown and maintained at 37° C. in a humidified atmosphere containing 5% CO2 in a water jacketed cell culture incubator (Forma Scientific). Cells were counted using a ViCell counter (Beckman-Coulter). An automated plate washer/stacker (ELx405/BioStak from BioTek Instruments) and a microplate reader (SpectraMax Plus from Molecular Devices) were used for conducting the SRB assay and determining A570 values for wells in the plates and the percentage of control values. Prior to SRB assays, cell viability was monitored by evaluation of microtiter plate wells. Dead cells detach and float while living cells remain attached to the bottom of the cell well.
(§5) SN-38 (Irinotecan; Sigma H0165, lot MKBQ4981) and Topotecan (Sigma T2705, lot 052M4728V) were purchased from SigmaAldrich. BNP1350 (lot KN-C192-135) and BNP7787 (lot 205001) were synthesized at BioNumerik Pharmaceuticals, Inc. (San Antonio, Tex.). BNP1350, SN38, and Topotecan were prepared as 2.5, 2.5, and 25 mM stocks in DMSO (ATCC, cell culture grade).
(§6) The sulforhodamine B (SRB) cytotoxicity assay was used to assess cell survival. Briefly, after the medium was decanted from individual plate wells, trichloroacetic acid (100 μL of 10.0 percent solution) was added to each well, and the plates were incubated at 4° C. for 1 hour. The plates were washed five times with water using an automated microplate washer (Model ELx405, Bio-Tek Instruments), SRB solution (100 μL of 0.4% SRB dissolved in 1.0 percent acetic acid) was added, and plates remained at room temperature for 15 minutes. The plates were then washed five times using acetic acid (1.0 percent), air dried, and bound dye was solubilized in Tris base (150 μL, 10 mM). Plates were agitated (gently) for 5 minutes and the absorbance values of the SRB dye-protein adduct at 570 nanometers (A570) were determined using an automated microtiter plate reader (SpectraMax Plus, Molecular Devices). IC50 values were extrapolated from dose response curves of the data using OriginLab Software.
as §1

JHOM2B Cell Line = test: SRB cytotoxicity assay, JHOM2B; format: cell-based, human
Protocol: as §2, §3, §4, §5, §6

OMC3 Cell Line = test: SRB cytotoxicity assay, OMC3; format: cell-based, human
Protocol: as §2, §3, §4, §5, §6

[3] = 2 hour drug exposure, read-out: IC50, Test 1 (2 replicate plates)
[4] = 2 hour drug exposure, read-out: IC50, Test 2 (3 replicate plates)

For `Nc1ccn([C@@H]2O[C@H](CO)[C@@H](O)C2(F)F)c(=O)n1` [Gemcitabine], the Subjects with neutropenia [1] is given as “up to 90%”.

In the case of `CC[C@@]1(O)C(=O)OCc2c1cc1n(c2=O)Cc2cc3cc4c(cc3nc2-1)OCO4` [10,11-methylenedioxycamptothecin], the “Resistance of MDR-expressing sublines relative to parental wild-type cells” value (MDR-expressing sublines) is listed as “No increase in resistance”.

In the case of `CC[C@@]1(O)C(=O)OCc2c1cc1n(c2=O)Cc2cc3c(N)cccc3nc2-1` [9-aminocamptothecin, 9-amino-camptothecin], the “Resistance of MDR-expressing sublines relative to parental wild-type cells” value (MDR-expressing sublines) is given as “two-fold more resistant”.

In the case of `CCc1c2c(nc3ccc(O)cc13)-c1cc3c(c(=O)n1C2)COC(=O)[C@]3(O)CC` [SN38], the “Limit of solubility in cell culture medium” value [2] is reported as 2 µM, the IC50 (COV644 Cell Line; did not reach 50% of Control, read-out: IC50, Test 1 (2 replicate plates)) is reported as > 2000 nM and the IC50 (COV644 Cell Line; did not reach 50% of Control, read-out: IC50, Test 2 (2 to 3 replicate plates)) is reported as > 2000 nM. The IC50 (COV644 Cell Line; read-out: IC50, Average) was > 2000 nM, the IC50 (JHOM2B Cell Line; 2 hour drug exposure, average of Test 1 and Test 2, read-out: IC50, Average) was 666 nM and the IC50 (JHOM2B Cell Line; [3]) was 610 ± 130 nM. It also gave an IC50 (JHOM2B Cell Line; [4]) of 723 ± 28 nM, an IC50 (JHOM2B Cell Line; read-out: IC50 values) of 667 nM and an IC50 (OMC3 Cell Line; [3]) of 550 ± 60 nM. For the same molecule, the IC50 (OMC3 Cell Line; [4]) was 580 ± 127 nM and the IC50 (OMC3 Cell Line; read-out: IC50 values) was 565 nM.

In the case of `COc1cccc2c1C(=O)c1c(O)c3c(c(O)c1C2=O)C[C@@](O)(C(=O)CO)C[C@@H]3O[C@H]1C[C@H](N)[C@H](O)[C@H](C)O1` [doxorubicin], the “Change in sensitivity typically described for classic MDR substrates” value (MDR-expressing sublines; same experiments) is listed as 200 fold.
